Measurements as given in EP4582413A1, “ARYLTETRAHYDROPYRIDINE COMPOUND AND PEST CONTROL AGENT” (priority 2022, dated 2024).

Columns and labels:
Type in all cases: in vivo
[1] = tested on: diamondback moths (Plutella xylostella); test: Insecticidal test for diamondback moths; settings: 500 ppm chemical solution, leaves soaked, third-instar larvae, six days, 25°C; for mortality at 500 µg/mL: Plutella xylostella, 144 h, read-out: death rate; for death rate: 8640 min
Experimental: A 10% by mass emulsion of the presently invented compound prepared according to the above formulation example for an emulsion was diluted with water containing a spreader to prepare a chemical solution having a concentration of 500 ppm. Chinese olive leaves were soaked in the chemical solution for approximately 10 seconds. After the completion of the soaking operation, the Chinese olive leaves treated with the chemical solution were air-dried, and then put in dishes. Into each dish, five third-instar diamondback moths (Plutella xylostella) larvae were released, and the dishes were capped and accommodated in a thermostatic room at 25°C. […] The test was carried out in duplicate.

[2] = tested on: cat fleas (Ctenocephalides felis); test: whole plant or invertebrate; settings: 72 h, read-out: death rate
Experimental: In 1 ml of acetone, 1 mg of the presently invented compound was dissolved to prepare a chemical solution having a concentration of 1000 ppm. The bottom surface and side surface of each glass container having an inner wall surface area of 25 cm^2 were coated with 250 µl of the chemical solution, and acetone was then volatilized to form a thin film of the compound on the inner wall of the glass container.
Into each of the treated glass containers, five cat fleas (Ctenocephalides felis) imagoes (mixed-sex) were released, and the glass containers were capped and accommodated in a thermostatic room at 25°C. Three days after the release, the number of dead flea individuals were examined, and the death rate was calculated from the same calculation formula as in Test Example 1.

[3] = tested on: brown rice planthoppers (Nilaparvata lugens); test: Insecticidal test for brown rice planthoppers; settings: 500 ppm chemical solution, rice leaf sheaths soaked, third-instar larvae, six days, 25°C; for mortality at 500 µg/mL: Nilaparvata lugens, 144 h, read-out: death rate; for death rate: 8640 min
Experimental: A 10% by mass emulsion of the presently invented compound prepared according to the above formulation example for an emulsion was diluted with water containing a spreader to prepare a chemical solution having a concentration of 500 ppm. Rice leaf sheaths were soaked in the chemical solution for approximately 10 seconds. After the completion of the soaking operation, the rice leaf sheaths treated with the chemical solution were air-dried, and then put in test tubes. Into each test tube, five third-instar brown rice planthoppers (Nilaparvata lugens) larvae were released, and the test tubes were capped with sponge and accommodated in a thermostatic room at 25°C. Six days after the accommodation, the number of dead brown rice planthoppers individuals in the test tubes were examined, and the death rate was calculated from a calculation formula shown below. The test was carried out in duplicate. [formula]

[4] = tested on: western flower thrips (Frankliniella occidentalis); test: Insecticidal activity against western flower thrips; settings: 500 ppm chemical solution sprinkled (2.5 mg/cm^2), larvae on common bean leaf, after 2 days; for mortality at 500 µg/mL: Frankliniella occidentalis, 48 h, read-out: death rate
Experimental: Wet filter paper was laid on each styrol cup having an inner diameter of 7 cm, and a common bean leaf cut into a 3 cm square was placed thereon, and inoculated with 20 western flower thrips (Frankliniella occidentalis) larvae. A 10% by mass emulsion of the presently invented compound prepared according to the above formulation example for an emulsion was diluted with water containing a spreader to prepare a chemical solution having a concentration of 500 ppm. For each styrol cup, 2.5 ml of the chemical solution prepared was sprinkled (2.5 mg/cm^2) with a rotary tower sprinkler. […] The test was carried out in duplicate.

Compound | mortality at 500 µg/mL [1] [%] | mortality at 10 µg/cm2 [2] [%] | mortality at 500 µg/mL [4] [%] | also measured
COc1ccc(-c2cc(C3CC(O)=C(C(=O)Nc4ccc(F)cc4)C(=O)N3)ccc2C(F)(F)F)cc1 (stereo not drawn) [1-018] | ≥ 90 | ≥ 50 | – | –
O=C(Nc1ccc(F)nc1)C1=C(O)CC(c2cnc(Cl)c(-c3ccc(F)nc3)c2)NC1=O (stereo not drawn) [2-008] | ≥ 90 | ≥ 50 | ≥ 90 | mortality at 500 µg/mL [3]: ≥ 90%
O=C(Nc1cccc(F)n1)C1=C(O)CC(c2nc(-c3ccncc3Cl)no2)NC1=O (stereo not drawn) [3-239] | ≥ 90 | ≥ 50 | ≥ 90 | mortality at 500 µg/mL [3]: ≥ 90%
O=C(Nc1cc(Br)ccn1)C1=C(O)CC(c2cnc(Cl)c(-c3cnccc3F)c2)NC1=O (stereo not drawn) [2-144] | ≥ 90 | ≥ 50 | ≥ 90 | mortality at 500 µg/mL [3]: ≥ 90%
O=C(Nc1ccc(F)cc1)C1=C(O)CC(c2nc(-c3cccc(C(F)(F)F)c3)no2)NC1=O (stereo not drawn) [3-005] | ≥ 90 | ≥ 50 | ≥ 90 | mortality at 500 µg/mL [3]: ≥ 90%
O=C(Nc1ccc(F)cc1)C1=C(O)CC(c2nc(-c3cncc(F)c3)no2)NC1=O (stereo not drawn) [3-021] | ≥ 90 | ≥ 50 | ≥ 90 | mortality at 500 µg/mL [3]: ≥ 90%
O=C(Nc1ncccn1)C1=C(O)CC(c2cnc(Cl)c(-c3ccc(F)cc3)c2)NC1=O (stereo not drawn) [2-238] | – | ≥ 50 | ≥ 90 | mortality at 500 µg/mL [3]: ≥ 90%
O=C(Nc1ccc(F)cc1F)C1=C(O)CC(c2nc(-c3ccc(F)cc3F)no2)NC1=O (stereo not drawn) [3-157] | ≥ 90 | ≥ 50 | ≥ 90 | mortality at 500 µg/mL [3]: ≥ 90%
O=C(Nc1nccs1)C1=C(O)CC(c2cnc(Cl)c(-c3ccc(F)cc3)c2)NC1=O (stereo not drawn) [2-235] | ≥ 90 | ≥ 50 | ≥ 90 | mortality at 500 µg/mL [3]: ≥ 90%
Cc1cccc(-c2cc(C3CC(O)=C(C(=O)Nc4ccc([N+](=O)[O-])cc4)C(=O)N3)cnc2Cl)c1 (stereo not drawn) [2-279] | ≥ 90 | ≥ 50 | ≥ 90 | –
O=C(Nc1ccc(F)cc1)C1=C(O)CC(c2nc(-c3cc(F)ccc3F)no2)NC1=O (stereo not drawn) [3-026] | ≥ 90 | ≥ 50 | ≥ 90 | mortality at 500 µg/mL [3]: ≥ 90%
O=C(Nc1cc(F)ccn1)C1=C(O)CC(c2nc(-c3ccncn3)no2)NC1=O (stereo not drawn) [3-212] | ≥ 90 | ≥ 50 | – | –
O=C(Nc1ncccc1F)C1=C(O)CC(c2nc(-c3cnccc3F)no2)NC1=O (stereo not drawn) [3-237] | ≥ 90 | ≥ 50 | – | mortality at 500 µg/mL [3]: ≥ 90%
CC(=O)c1ccc(-c2cc(C3CC(O)=C(C(=O)Nc4ccc(Cl)cn4)C(=O)N3)cnc2Cl)cc1 (stereo not drawn) [2-066] | – | – | – | death rate [1]: ≥ 90%
Cc1ccc(NC(=O)C2=C(O)CC(c3nc(-c4ccsc4)no3)NC2=O)nc1 (stereo not drawn) [3-168] | – | – | – | death rate [3]: ≥ 90%
O=C(Nc1ncc(C(F)(F)F)cn1)C1=C(O)CC(c2cnc(Cl)c(-c3cncc(F)c3)c2)NC1=O (stereo not drawn) [2-051] | – | – | – | death rate [3]: ≥ 90%
Cc1ccoc1-c1noc(C2CC(O)=C(C(=O)Nc3ccc(F)cn3)C(=O)N2)n1 (stereo not drawn) [3-094] | – | – | – | death rate [3]: ≥ 90%
O=C(Nc1nncs1)C1=C(O)CC(c2cnc(Cl)c(-c3ccc(F)cc3)c2)NC1=O (stereo not drawn) [2-239] | – | – | ≥ 90 | –
C#Cc1ccc(NC(=O)C2=C(O)CC(c3cnc(Cl)c(-c4ccc(F)cc4)c3)NC2=O)cc1 (stereo not drawn) [2-243] | – | – | – | death rate [1]: ≥ 90%
O=C(Nc1cc(F)ccn1)C1=C(O)CC(c2nc(-c3ccccn3)no2)NC1=O (stereo not drawn) [3-045] | – | ≥ 50 | ≥ 90 | mortality at 500 µg/mL [3]: ≥ 90%
O=C(Nc1ccccn1)C1=C(O)CC(c2cnc(Cl)c(-c3ccc(F)cc3)c2)NC1=O (stereo not drawn) [2-226] | ≥ 90 | ≥ 50 | ≥ 90 | –
Cc1cncc(-c2cc(C3CC(O)=C(C(=O)Nc4cnccn4)C(=O)N3)cnc2Cl)c1 (stereo not drawn) [2-148] | ≥ 90 | ≥ 50 | – | –
O=C(Nc1nccnn1)C1=C(O)CC(c2cnc(Cl)c(-c3ccc(F)cc3)c2)NC1=O (stereo not drawn) [2-237] | – | – | – | death rate [1]: ≥ 90%
COc1ccc(NC(=O)C2=C(O)CC(c3cnc(Cl)c(-c4cccc(C)c4)c3)NC2=O)cc1 (stereo not drawn) [2-258] | – | – | – | death rate [4]: ≥ 90%

Compound | mortality at 500 µg/mL [1] [%] | mortality at 10 µg/cm2 [2] [%] | mortality at 500 µg/mL [4] [%] | also measured
COc1ccc(-c2cc(C3CC(O)=C(C(=O)Nc4ccc(Cl)nc4)C(=O)N3)cnc2Cl)cn1 (stereo not drawn) [2-017] | – | – | – | death rate [1]: ≥ 90%
O=C(Nc1ccc(F)cc1)C1=C(O)CC(c2cnc(Cl)c(-c3ccc(F)cc3)c2)NC1=O (stereo not drawn) [2-229] | ≥ 90 | ≥ 50 | ≥ 90 | –
O=C(Nc1cnccn1)C1=C(O)CC(c2nc(-c3ccc(F)cn3)no2)NC1=O (stereo not drawn) [3-261] | – | – | ≥ 90 | mortality at 500 µg/mL [3]: ≥ 90%
Cc1ccnc(-c2noc(C3CC(O)=C(C(=O)Nc4ccc(F)cn4)C(=O)N3)n2)c1 (stereo not drawn) [3-153] | – | – | – | death rate [3]: ≥ 90%
Cc1ccc(NC(=O)C2=C(O)CC(c3nc(-c4ccnc(F)c4)no3)NC2=O)cc1Cl (stereo not drawn) [3-267] | – | – | ≥ 90 | –
C[S+]([O-])c1ccc(NC(=O)C2=C(O)CC(c3cnc(Cl)c(-c4ccc(Cl)nc4)c3)NC2=O)cc1 (stereo not drawn) [2-043] | – | – | – | death rate [3]: ≥ 90%
O=C(Nc1ccc(F)cc1)C1=C(O)CC(c2nc(-c3ccc(C(F)(F)F)cc3)no2)NC1=O (stereo not drawn) [3-004] | – | – | – | death rate [1]: ≥ 90%
O=C(Nc1ccc(O)cc1)C1=C(O)CC(c2cnc(Cl)c(-c3ccc(F)cc3)c2)NC1=O (stereo not drawn) [2-241] | – | – | – | death rate [1]: ≥ 90%
Cc1ccc(NC(=O)C2=C(O)CC(c3cnc(Cl)c(-c4cccc(C)c4)c3)NC2=O)cc1 (stereo not drawn) [2-282] | ≥ 90 | ≥ 50 | ≥ 90 | –
Cc1csc(NC(=O)C2=C(O)CC(c3nc(-c4ccc(F)nc4)no3)NC2=O)n1 (stereo not drawn) [3-290] | – | – | – | death rate [3]: ≥ 90%
Cc1cncc(-c2noc(C3CC(O)=C(C(=O)Nc4ccc(F)cn4)C(=O)N3)n2)c1 (stereo not drawn) [3-130] | – | – | – | death rate [3]: ≥ 90%
O=C(Nc1ccc([N+](=O)[O-])c(Cl)c1)C1=C(O)CC(c2nc(-c3ccnc(F)c3)no2)NC1=O (stereo not drawn) [3-120] | – | – | – | death rate [4]: ≥ 90%
O=C(Nc1ccc(F)cc1)C1=C(O)CC(c2nc(-c3ccc(Cl)cc3)no2)NC1=O (stereo not drawn) [3-003] | ≥ 90 | ≥ 50 | ≥ 90 | –
CC(=O)c1ccc(NC(=O)C2=C(O)CC(c3cnc(Cl)c(-c4ccc(F)cc4)c3)NC2=O)cc1 (stereo not drawn) [2-295] | – | – | – | death rate [1]: ≥ 90%
O=C(Nc1ccc(Cl)nc1)C1=C(O)CC(c2nc(-c3ccccc3F)no2)NC1=O (stereo not drawn) [3-019] | – | – | – | death rate [1]: ≥ 90%
O=C(Nc1cc(F)ccn1)C1=C(O)CC(c2nc(-c3c(F)cccc3Cl)no2)NC1=O (stereo not drawn) [3-143] | ≥ 90 | – | – | –
O=C(Nc1ccc(C(F)(F)F)cn1)C1=C(O)CC(c2cnc(Cl)c(-c3ccc(F)cc3)c2)NC1=O (stereo not drawn) [2-230] | – | – | – | death rate [4]: ≥ 90%
Cc1ccnc(NC(=O)C2=C(O)CC(c3nc(-c4ccccn4)no3)NC2=O)c1 (stereo not drawn) [3-152] | – | – | – | mortality at 500 µg/mL [3]: ≥ 90%
Cc1cccc(-c2cc(C3CC(O)=C(C(=O)Nc4nccnn4)C(=O)N3)cnc2Cl)c1 (stereo not drawn) [2-270] | – | ≥ 50 | – | –
Cc1cccc(-c2cc(C3CC(O)=C(C(=O)Nc4cccnc4F)C(=O)N3)cnc2Cl)c1 (stereo not drawn) [2-275] | – | ≥ 50 | – | –
O=C(Nc1cc(F)ccn1)C1=C(O)CC(c2nc(-c3ccc(Cl)c(F)c3)no2)NC1=O (stereo not drawn) [3-145] | ≥ 90 | ≥ 50 | ≥ 90 | –
CC(C)(C)OC(=O)c1ccc(NC(=O)C2=C(O)CC(c3cnc(Cl)c(-c4ccc(F)cc4)c3)NC2=O)cc1 (stereo not drawn) [2-296] | – | – | ≥ 90 | –
O=C(Nc1ccc(Cl)nn1)C1=C(O)CC(c2cnc(Cl)c(-c3cncc(F)c3)c2)NC1=O (stereo not drawn) [2-052] | – | – | – | death rate [3]: ≥ 90%
N#Cc1ccc(NC(=O)C2=C(O)CC(c3cnc(Cl)c(-c4cncc(F)c4)c3)NC2=O)cc1 (stereo not drawn) [2-071] | – | ≥ 50 | ≥ 90 | mortality at 500 µg/mL [3]: ≥ 90%
